Test results from US20220009914A1, “Analogs of Nitrofuran Antibiotics to Combat Resistance” (The Trustees of Indiana University, priority 2020, published 2022).
Read-outs that look alike come from different tables or passages of the source.

Assays:
[1] = tested on: E. coli and the ESKAPE bacteria; experiment: bacterial proliferation assays, whole panel (results in words); type: cell-based
Method: All compounds were evaluated for inhibiting the proliferation of E. coli and each of the ESKAPE bacteria. Results presented represent the averages of EC50 values obtained from at least four replicates. Evaluating compounds for inhibition of bacterial cell proliferation.
Growth Media: E. coli were grown with LB medium and all ESKAPE bacteria were grown in Brain Heart Infusion (BHI) medium (Becton, Dickinson and Company), with all liquid cultures supplemented with 25 mg/L Ca^2+ and 12.5 mg/L Mg^2+ to mimic physiological free concentrations of these cations. A 10 mg/mL Ca^2+ stock solution was prepared by dissolving 1.84 g of CaCl2.2H2O in 50 mL of deionized water, and a 10 mg/mL Mg^2+ stock solution was prepared by dissolving 4.18 g of MgCl2.6H2O in 50 mL deionized water—filter sterilized using 0.2 μm cellulose-acetate filters. 2.5 mL of the sterile 10 mg/mL Ca^2+ stock and 1.25 mL of the sterile 10 mg/mL Mg^2+ stock solutions were added per 1 L of autoclaved LB or BHI media to obtain 25 mg/L Ca^2+ and 12.5 mg/L Mg^2+ ions, respectively.
General Assay Protocol: Stock bacterial cultures were streaked onto LB or BHI agar plates and grown overnight at 37° C. Fresh aliquots of cation supplemented media were inoculated with single bacterial colonies and the cultures were grown overnight at 37° C. with shaking (240 rpm). […] The cultures were then diluted into fresh media to achieve final OD600 readings of 0.017. […] A second set of baseline control plates were prepared analogously, but without any bacteria added, to correct for possible compound absorbance and/or precipitation. […] Plates were then read at 600 nm using a Molecular Devices SpectraMax Plus384 microplate reader. […]
Evaluating analogs for inhibiting the growth of E. coli and the ESKAPE bacteria. […] After addition of compounds to cultures, the plates were sealed with Breathe-Easy gas permeable membranes and allowed to grow to mid-log phase (OD600˜0.4-0.6), whereupon final OD600 readings were taken to assess for bacterial growth and inhibition.

[2] = tested on: NEB 5-alpha E. coli; experiment: microbe, parasite or virus in culture; type: cell-based, Escherichia coli; settings: for resistance of the maximally-resistant strain to its inhibitor after passaging without compound: 4×12 h serial passages without test compounds, then 24 h proliferation assay; for EC50: Escherichia coli, read-out: EC50 plateau after intermediate resistance
Method: Evaluating the ability of E. coli to generate resistance to lead inhibitors. […] NEB 5-alpha E. coli bacteria were streaked onto an LB agar plate and grown overnight at 37° C. […] The overnight cultures were then sub-cultured (10× dilution) into fresh media solutions and grown at 37° C. to mid-log phase, then diluted into fresh media to achieve two separate cultures with final OD600 readings of 0.01. […] Test compounds were evaluated in duplicate with concentration ranges during the resistance assay from 100 μM to 48.8 nM, 2-fold dilution series. […] OD600 readings were taken at the 24 h time point to monitor for bacterial growth. A second baseline control plate was prepared analogously, without any bacteria added, to correct for possible compound absorbance and/or precipitation. For inoculations on subsequent days, bacteria from the wells with the highest test compound concentration where the OD600 was >0.2, were sub-cultured in 5 mL of fresh media at 37° C. until mid-log phase growth was reached. Separate cultures were maintained from this point forward for each of the compound replicates—i.e. 6 cultures continually propagated. The bacteria were then diluted into fresh media to OD600 of 0.01 and the bacteria were propagated again as described above.

[3] = tested on: nifuroxazide resistant E. coli; type: cell-based, Escherichia coli
[4] = tested on: compound 17 resistant E. coli
[5] = tested on: nitrofurantoin resistant E. coli; type: cell-based, Escherichia coli
[6] = target: T1, E. coli GroEL/ES (Escherichia coli, UniProt P0A6F5); settings: read-out: IC50 GroEL/ES-mediated refolding of denatured malate dehydrogenase; previously found; cited from earlier work
T1 construct: made in house; host or cells: GroEL in NEB 5-alpha E. coli; GroES in E. coli BL21 (DE3)

[7] = target: T1, E. coli GroEL/ES; settings: read-out: IC50 GroEL/ES-mediated refolding of denatured rhodanese; previously found; cited from earlier work
[8] = tested on: Klebsiella pneumoniae strain NCTC 9633 (ATCC #13883); settings: previously found; read-out: EC50 proliferation of K. pneumoniae; cited from earlier work
[9] = tested on: Acinetobacter baumannii strain 2208 (ATCC 19606); settings: previously found; read-out: EC50 proliferation of A. baumannii; cited from earlier work
[10] = tested on: B. subtilis; settings: previously found; read-out: EC50 proliferation of B. subtilis; cited from earlier work
[11] = tested on: methicillin-resistant S. aureus; settings: previously found; read-out: EC50 proliferation of methicillin-resistant S. aureus; cited from earlier work
[12] = tested on: SM101 E. coli; settings: previously found; read-out: EC50 proliferation of SM101 E. coli; cited from earlier work
[13] = E. coli and the ESKAPE pathogens

T1 sequence (P0A6F5 2-548): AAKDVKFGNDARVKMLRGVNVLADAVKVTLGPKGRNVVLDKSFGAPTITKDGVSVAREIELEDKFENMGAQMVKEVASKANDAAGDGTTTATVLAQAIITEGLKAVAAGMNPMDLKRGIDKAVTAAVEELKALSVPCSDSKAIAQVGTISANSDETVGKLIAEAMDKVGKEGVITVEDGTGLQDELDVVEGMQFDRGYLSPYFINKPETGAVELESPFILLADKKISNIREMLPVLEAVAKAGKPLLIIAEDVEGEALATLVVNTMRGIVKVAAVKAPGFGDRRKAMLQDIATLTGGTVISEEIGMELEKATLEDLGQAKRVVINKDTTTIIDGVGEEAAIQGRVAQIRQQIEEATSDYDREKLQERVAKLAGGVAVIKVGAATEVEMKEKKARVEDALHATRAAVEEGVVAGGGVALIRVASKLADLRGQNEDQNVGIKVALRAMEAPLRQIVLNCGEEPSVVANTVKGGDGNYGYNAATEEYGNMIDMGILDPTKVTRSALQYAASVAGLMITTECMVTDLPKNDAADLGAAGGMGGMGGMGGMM

O=Cc1ccc(O)c2ncccc12 [Compound 40, reference compound]
antibacterial efficacy in words [1, 13]: potent inhibitors of nearly all the bacteria (excluding P. aeruginosa)

O=Cc1ccc([N+](=O)[O-])o1 [Compound 41, reference compound]
antibacterial efficacy in words [1, 13]: potent inhibitors of nearly all the bacteria (excluding P. aeruginosa)

O=C1CN(/N=C/c2ccc([N+](=O)[O-])o2)C(=O)N1 [Nitrofurantoin, reference compound]
resistance of the maximally-resistant strain to its inhibitor after passaging without compound [2]: still resistant
EC50 [2]: 20 to 40 µM
response of nifuroxazide-resistant strains to the other inhibitor [3]: cross-resistant
17-resistant strains susceptible to the other inhibitor [4]: not

O=C(N/N=C/c1ccc([N+](=O)[O-])o1)c1ccc(O)cc1 [Nifuroxazide, reference compound]
resistance of the maximally-resistant strain to its inhibitor after passaging without compound [2]: still resistant
EC50 [2]: 20 to 40 µM
response of nitrofurantoin-resistant strains to the other inhibitor [5]: still sensitive
17-resistant strains susceptible to the other inhibitor [4]: susceptible

CN(C)c1ccc(C(=O)N/N=C/c2ccc([N+](=O)[O-])o2)cc1 [Compound 21, 4-(dimethylamino)-N′-((5-nitrofuran-2-yl)methylene)benzohydrazide]
antibacterial efficacy in words ([1]; Gram-positive E. faecium and S. aureus): less effective (or inactive)

O=C(N/N=C/c1ccc([N+](=O)[O-])o1)c1ccc(Cl)s1 [Compound 17, 5-chloro-N′-((5-nitrofuran-2-yl)methylene)thiophene-2-carbohydrazide]
resistance of the maximally-resistant strain to its inhibitor after passaging without compound [2]: still resistant
EC50 [2]: 20 to 40 µM
response of nifuroxazide-resistant strains to the other inhibitor [3]: cross-resistant
response of nitrofurantoin-resistant strains to the other inhibitor [5]: still sensitive

COc1ccc(C(=O)N/N=C/c2ccc(O)c3ncccc23)cc1 [Compound 1, N′-((8-hydroxyquinolin-5-yl)methylene)-4-methoxybenzohydrazide]
IC50 [6]: 31 µM
IC50 [7]: 18 µM
EC50 [8]: 95 µM
EC50 [9]: 32 µM
EC50 [10]: 83 µM
EC50 [11]: 56 µM
EC50 [12]: 19 µM
